# Non-standard residues stand in square brackets, D forms with d. No end group written: not given here. tri‑branched mPEG‑MAL 50 kDa = tri-branched maleimide-activated monomethoxy PEG, 50 kDa; Aib = CC(C)(N)C(=O)O
# What was measured:
# Type in all cases: in vivo
# [1] = system: db/db mice; assay: glycated hemoglobin (HbA1c) in db/db mice after administration; conditions: db/db mice after administration of 20 nmol/kg s.c. once every other day; FIG. 3
# Description: Next, to perform an intraperitoneal glucose tolerance test (ipGTT), 2 g/kg of glucose was administered intraperitoneally after the 12-day administration of the drug, and a change in blood glucose with the elapse of time (0, 15, 30, 60, 90, and 120 minutes) was measured. To determine a degree of long-term change in average blood glucose level, a level of glycated hemoglobin (HbA1c) was also measured after the drug administration.
# [2] = system: animal model of non-alcoholic fatty liver diseases (C57BL/6 mice, 60% high-fat diet); assay: non-alcoholic fatty liver disease model, 60% high-fat diet (Experimental Example 7); conditions: 20 nmol/kg s.c. once every other day for 2 weeks
# Description: Specifically, first of all, a laboratory animal model of non-alcoholic fatty liver diseases was prepared by feeding a 60% high-fat diet to normal C57BL/6 mice (approximately 6 weeks old) for approximately 24 weeks, and increasing the body weights of the mice to approximately 50 g in average. Thereafter, the conjugate of Example 2 was administered by subcutaneous injection at a dose of 20 nmol/kg once every other day for 2 weeks. […] After the 2-week administration of the drug, blood was collected from the mice to measure a serum cholesterol concentration, and the livers were extracted, weighed, embedded in paraffin, and then microtomed into thin slices. Thereafter, the liver biopsy was conducted using a hematoxylin & eosin (H&E).
# [3] = system: obesity animal model (C57BL/6 mice, 60% high-fat diet); assay: final body weight with different dose and dosing frequency in obesity model (Experimental Example 5); conditions: FIG. 4
# Description: First, an obesity animal model was prepared by feeding a 60% high-fat diet to normal C57BL/6 mice (approximately 6 weeks old) for approximately 24 weeks, and increasing the body weights of the mice to approximately 50 g in average. After 2 weeks, the final body weights of the mice were measured.
# [4] = system: obesity animal model (C57BL/6 mice, 60% high-fat diet); assay: blood glucose in obesity model, Examples 2 and 6 (Experimental Example 6); conditions: 20 nmol/kg s.c. once every other day for 2 weeks; FIG. 5
# Description: To check a preventing or therapeutic effect of the conjugates of Examples 2 and 6, which had different amino acid sequences, on obesity or diabetes, an animal model of obesity was prepared by feeding a 60% high-fat diet to normal C57BL/6 mice (approximately 6 weeks old) for approximately 24 weeks, and increasing the body weights of the mice to approximately 50 g in average. Thereafter, each of the conjugates of Examples 2 or 6 was administered by subcutaneous injection at a dose of 20 nmol/kg once every other day for 2 weeks. As the control, PBS was administered instead of the conjugates of Examples. For 2 weeks when the conjugates of Examples 2 or 6 were administered, changes in blood glucose with time were measured. Also, to perform an intraperitoneal glucose tolerance test (ipGTT), 2 g/kg of glucose was administered intraperitoneally after the 2-week administration of the drug, and changes in blood glucose with the elapse of time (0, 15, 30, 60, 90, and 120 minutes) were measured.
# [5] = system: db/db mice; assay: blood glucose and body weight in db/db mice (Experimental Example 4)
# Description: First of all, the conjugate of Example 2 was administered to 7-week-old db/db mice by subcutaneous injection at a dose of 20 nmol/kg once every other day for 12 days. For 12 days when the drug was administered, the changes in blood glucose and body weights were measured once every other day after the drug administration.
# [6] = system: obesity animal model (C57BL/6 mice, 60% high-fat diet); assay: body weight, food intake and blood glucose in high-fat diet obesity animal model (Experimental Example 2); conditions: for Blood glucose / Body weight / Food intake: 20 nmol/kg s.c. once every other day; for Food intake: cumulative
# Description: First, an obesity animal model was prepared by feeding a 60% high-fat diet to normal C57BL/6 mice (approximately 6 weeks old) for approximately 24 weeks, and increasing the body weights of the mice to approximately 50 g on average. Thereafter, the conjugate of Example 2 was administered by subcutaneous injection at a dose of 20 nmol/kg once every other day for 2 weeks. […] For 2 weeks when the drug was administered, the food intake, the blood glucose, and the body weights were measured once every other day at given points of time.
# In this case, the body weights and the blood glucose were expressed in the percentage (%) on the basis of 100% before the administration (Day 0).
# [7] = system: animal model of non-alcoholic fatty liver diseases (C57BL/6 mice, high-trans-fat diet); assay: non-alcoholic fatty liver disease model, high-trans-fat diet (Experimental Example 8); conditions: 20 nmol/kg s.c. once every three days for 4 weeks, also lowered vs liraglutide
# Description: First of all, a laboratory animal model of non-alcoholic fatty liver diseases was prepared by feeding a high-trans-fat diet, which contained 40% high fats, 20% fructose, and 2% cholesterol, to normal C57BL/6 mice (approximately 6 weeks old) for approximately 16 weeks. Thereafter, the conjugate of Example 2 was administered by subcutaneous injection at a dose of 20 nmol/kg once every three days for 4 weeks. […] After the 4-week experiment was completed, a level of serum cholesterol, the liver weights, and the hepatic triglycerides (hepatic TGs) were measured.
# [8] = 20 nmol/kg s.c. once every other day for 2 weeks
# [9] = 20 nmol/kg s.c. once every other day for 12 days
# [10] = day 0, 20 nmol/kg s.c. once every other day
# [11] = day 2, 20 nmol/kg s.c. once every other day
# [12] = day 4, 20 nmol/kg s.c. once every other day
# [13] = day 6, 20 nmol/kg s.c. once every other day
# [14] = day 8, 20 nmol/kg s.c. once every other day
# [15] = day 10, 20 nmol/kg s.c. once every other day
# [16] = day 12, 20 nmol/kg s.c. once every other day
# [17] = day 0 (before administration = 100%)
substance,measurement,setting,value
Example 2: Conjugate of polypeptide H(Aib)QGTFTSDYSKYLDEQAAKEFVQWLMNTC (SEQ ID NO. 2) and tri-branched mPEG-MAL (MW: 50 kDa) (H[Aib]QGTFTSDYSKYLDEQAAKEFVQWLMNTC(tri‑branched mPEG‑MAL 50 kDa); lactam (positions not given here); not fully specified (bridges); printed as H(Aib)QGTFTSDYSKYLDEQAAKEFVQWLMNTC),level of glycated hemoglobin (HbA1c),[1],significantly lower a level of glycated hemoglobin
same,hepatic steatosis in liver biopsy vs non-treated group,"[2]; H&E, also reduced vs liraglutide, FIG. 9",significantly reduced
same,level of serum cholesterol vs non-treated group,"[2]; also lowered vs liraglutide, FIG. 7",significantly lowered
same,liver weights vs non-treated group,"[2]; also lowered vs liraglutide, FIG. 8",significantly lowered
same,effect on body weight loss,[3]; [8],significant effect on the body weight loss
same,effect on body weight loss with extended interval,[3]; 40 nmol/kg s.c. once a week for 2 weeks,the same effect on the body weight loss
same,dose dependence of body weight loss,[3]; 20 vs 40 nmol/kg s.c. once every other day for 2 weeks,dose-dependent response
same,level of blood glucose vs control,[4],a level of blood glucose was lowered
same,body weight vs non-treated group,[5]; [9],body weight loss was observed
same,level of blood glucose vs non-treated group,[5]; [9],a level of blood glucose was lowered
same,Blood glucose,[5]; [10],100%
same,Body weight,[5]; [10],100%
same,Blood glucose,[5]; [11],88%
same,Body weight,[5]; [11],96%
same,Blood glucose,[5]; [12],34%
same,Body weight,[5]; [12],91%
same,Blood glucose,[5]; [13],25%
same,Body weight,[5]; [13],86%
same,Blood glucose,[5]; [14],17%
same,Body weight,[5]; [14],84%
same,Blood glucose,[5]; [15],17%
same,Body weight,[5]; [15],79%
same,Blood glucose,[5]; [16],16%
same,Body weight,[5]; [16],76%
same,level of blood glucose reduced compared to before the administration,[6]; [8],approximately 80%
same,Blood glucose,[6]; [17],100%
same,Body weight,[6]; [17],100%
same,Food intake,[6]; day 0,0 g
same,Blood glucose,"[6]; day 2, % of Day 0",87%
same,Body weight,"[6]; day 2, % of Day 0",97%
same,Food intake,[6]; day 2,4 g
same,Blood glucose,"[6]; day 4, % of Day 0",75%
same,Body weight,"[6]; day 4, % of Day 0",94%
same,Food intake,[6]; day 4,8 g
same,Blood glucose,"[6]; day 6, % of Day 0",48%
same,Body weight,"[6]; day 6, % of Day 0",89%
same,Food intake,[6]; day 6,11 g
same,Blood glucose,"[6]; day 8, % of Day 0",32%
same,Body weight,"[6]; day 8, % of Day 0",82%
same,Food intake,[6]; day 8,13 g
same,Blood glucose,"[6]; day 10, % of Day 0",35%
same,Body weight,"[6]; day 10, % of Day 0",74%
same,Food intake,[6]; day 10,15 g
same,Blood glucose,"[6]; day 12, % of Day 0",32%
same,Body weight,"[6]; day 12, % of Day 0",68%
same,Food intake,[6]; day 12,17 g
same,Blood glucose,"[6]; day 14, % of Day 0",18%
same,Body weight,"[6]; day 14, % of Day 0",61%
same,level of serum cholesterol vs non-treated group,[7]; FIG. 10,significantly lowered
same,liver weights vs non-treated group,[7]; FIG. 11,significantly lowered
same,hepatic triglycerides vs non-treated group,[7]; FIG. 12,significantly lowered

# Reference: US12338270B2, “Pharmaceutical composition comprising polypeptide” (D&D Pharmatech Inc., priority 2018, dated 2025)
